Values joined by “and” are separate entries in the source; they are usually repeats but may differ in a detail not shown here. Equal entries are not always repeated. Where two headings read alike, the source gives them in different places.
Tests used:
Experiment in all cases: Enzyme inhibition kinetics, fluorogenic substrate ES001
Format in all cases: biochemical
[1] = target: T1, human MT1-MMP/MMP-14 (catalytic domain) (Homo sapiens, UniProt P50281); conditions: for remaining activity at 0.01 µM: log [H1] (M) -8; for remaining activity at 0.0001 µM: log [H1] (M) -10
T1 construct: human MT1-MMP/MMP-14 (catalytic domain); purchased Calbiochem (San Diego, CA, USA)

[2] = target: T2, APMA activated MMP-9 (MMP-9(A)) (Homo sapiens, UniProt P14780); conditions: for Vi/V0 AVG: APMA activated MMP-9, average
T2 construct: made in house; host or cells: Sf9 and High Five insect cells
Outline: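 Recombinant full-length proMMP-9 expressed in insect cells was auto-activated with APMA and titrated with galardin. Activity at 0.05 nM enzyme was measured using 4.0 µM fluorogenic substrate ES001 in 100 µL 0.1 M Hepes pH 7.5 containing 10 mM CaCl2, 0.005% Brij-35 and 1.0% DMSO. Initial rates were followed at 37°C (excitation 320 nm, emission 405 nm) relative to inhibitor-free controls.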

[3] = target: T3, Mag-Trypsin activated MMP-9 (MMP-9(MT)) (Homo sapiens, UniProt P14780); conditions: for remaining activity at 100 µM: 100 µM inhibitor; for Vi/V0 avg: Trypsin activated MMP-9, average
T3 construct: made in house; host or cells: Sf9 and High Five insect cells

[4] = MMP-14, log [H1] (M) -4, replicates
[5] = read-out: vi/v0 before correction of curve, MMP-14, replicates
[6] = read-out: vi/v0 corrected (v0 is the average of log -10 to log -7), MMP-14, replicates

T3 sequence (P14780 107-707 limits assumed): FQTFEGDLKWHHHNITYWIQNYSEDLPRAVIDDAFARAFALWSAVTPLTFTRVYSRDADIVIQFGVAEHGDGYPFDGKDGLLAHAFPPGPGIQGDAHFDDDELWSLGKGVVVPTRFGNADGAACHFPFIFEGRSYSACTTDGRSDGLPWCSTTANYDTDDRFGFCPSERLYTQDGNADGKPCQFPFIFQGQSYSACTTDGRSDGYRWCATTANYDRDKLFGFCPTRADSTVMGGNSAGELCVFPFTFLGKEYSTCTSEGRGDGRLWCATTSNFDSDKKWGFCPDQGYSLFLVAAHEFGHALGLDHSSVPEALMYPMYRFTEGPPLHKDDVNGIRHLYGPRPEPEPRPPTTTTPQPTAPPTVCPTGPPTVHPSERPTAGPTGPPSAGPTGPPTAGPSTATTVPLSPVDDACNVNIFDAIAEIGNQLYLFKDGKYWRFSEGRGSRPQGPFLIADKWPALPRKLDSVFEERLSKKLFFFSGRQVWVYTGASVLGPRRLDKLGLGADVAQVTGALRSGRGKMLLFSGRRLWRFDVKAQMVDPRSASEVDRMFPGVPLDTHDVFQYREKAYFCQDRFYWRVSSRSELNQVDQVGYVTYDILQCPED
T2 sequence (P14780 107-707 limits assumed): as above

In the case of NC(=O)C(CCC(=O)O)NC(=O)C(CCC(=O)O)NC(=O)C(Cc1cc(-c2ccc(-c3cccc(Cl)c3)cc2)no1)CP(=O)(O)c1ccc(Br)cc1 (stereo not drawn) [H-1], the Ki [1] is reported as 0.89 ± 0.04 µM, the remaining activity at 100 µM ([1]; 0.25 h, read-out: vi/v0 (single replicate), MMP-14, 100 µM inhibitor, 15 min pre incubation) is reported as 3.03% and the remaining activity at 100 µM ([1]; 0.25 h, read-out: vi/v0 avg, MMP-14, 100 µM inhibitor, 15 min pre incubation) is reported as 2.86%. The remaining activity at 100 µM ([1]; 0.5 h, read-out: vi/v0 (single replicate), MMP-14, 100 µM inhibitor, 30 min pre incubation) was 4.56%, the remaining activity at 100 µM ([1]; 0.5 h, read-out: vi/v0 avg, MMP-14, 100 µM inhibitor, 30 min pre incubation) was 3.15% and the “inhibitory effect on enzymatic activity” value ([1]; MMP-14, 100 μM compound, in words) was “strong inhibition”. For the same compound, the “vi/v0 Av (bar diagram figure 7)” value ([1]; MMP-14, inhibitor 100 μM, average over preincubation times) was 0.03265, the “vi/v0 (relative enzyme activity with inhibitor), single determinations” value ([1]; MMP-14, inhibitor 100 μM, preincubation 0 min) was 0.02699 and 0.03692 and 0.04011 and 0.0422 and the “vi/v0 (relative enzyme activity with inhibitor), single determinations” value ([1]; MMP-14, inhibitor 100 μM, preincubation 15 min) was 0.03033 and 0.02659 and 0.02876. For the same compound, the “vi/v0 (relative enzyme activity with inhibitor), single determinations” value ([1]; MMP-14, inhibitor 100 μM, preincubation 30 min) was 0.04555 and 0.0252 and 0.02389, the “vi/v0 before correction of curve” value [1, 4] was 0 and the “vi/v0 corrected (v0 is the average of log -10 to log -7)” value [1, 4] was 0. It also gave a remaining activity at 100 µM ([1]; read-out: vi/v0 (single replicate), MMP-14, 100 µM inhibitor, no preincubation) of 2.7%, a remaining activity at 100 µM ([1]; read-out: vi/v0 avg, MMP-14, 100 µM inhibitor, no preincubation) of 3.66% and a remaining activity at 100 µM ([1]; read-out: vi/v0 before correction of curve, MMP-14, log [H1] (M) -4, replicates) of 0%. For the same compound, the remaining activity at 0.01 µM [1, 5] was 90.7%, the remaining activity at 0.0001 µM [1, 5] was 94.8% and the remaining activity at 100 µM ([1]; read-out: vi/v0 corrected (v0 is the average of log -10 to log -7), MMP-14, log [H1] (M) -4, replicates) was 0%. For the same compound, the remaining activity at 0.01 µM [1, 6] was 91.4%, the remaining activity at 0.0001 µM [1, 6] was 95.4% and the Ki [2] was 19 ± 3 µM. The remaining activity at 100 µM ([2]; 0.25 h, read-out: vi/v0 avg, rMMP-9 (APMA activated), 100 µM inhibitor, 15 min pre incubation) was 25.7%, the remaining activity at 100 µM ([2]; 0.5 h, read-out: vi/v0 avg, rMMP-9 (APMA activated), 100 µM inhibitor, 30 min pre incubation) was 25.3% and the “Vi/V0 AVG” value ([2]; [H1] 10 μM) was 0.7315. The “Vi/V0 AVG” value ([2]; [H1] 20 μM) was 0.5955, the “Vi/V0 AVG” value ([2]; [H1] 30 μM) was 0.5816 and the “Vi/V0 AVG” value ([2]; [H1] 40 μM) was 0.5052. The “Vi/V0 AVG” value ([2]; [H1] 50 μM) was 0.4481, the “Vi/V0 AVG” value ([2]; [H1] 60 μM) was 0.4125 and the “Vi/V0 AVG” value ([2]; [H1] 70 μM) was 0.3558. For the same compound, the “Vi/V0 AVG” value ([2]; [H1] 80 μM) was 0.3478, the “Vi/V0 AVG” value ([2]; [H1] 90 μM) was 0.3201 and the “Vi/V0 AVG” value ([2]; [H1] 100 μM) was 0.265. For the same compound, the “inhibitory effect on enzymatic activity” value ([2]; MMP-9(A), 100 μM compound, in words) was “strong inhibition”, the “vi/v0 Av (bar diagram figure 7)” value ([2]; rMMP-9 (APMA activated), inhibitor 100 μM, average over 0, 15, 30 min preincubation) was 0.2424 and the “vi/v0 (relative enzyme activity with inhibitor), single determinations” value ([2]; rMMP-9 (APMA activated), inhibitor 100 μM, preincubation 0 min) was 0.1639 and 0.167 and 0.1831 and 0.1727 and 0.3076 and 0.251 and 0.276. The remaining activity at 20 µM ([2]; read-out: Vi/V0, APMA activated MMP-9, [H1] 20 μM, replicate vi over each of 4 controls) was 59.1%, the remaining activity at 40 µM ([2]; read-out: Vi/V0, APMA activated MMP-9, [H1] 40 μM, replicate vi over each of 4 controls) was 41.9% and the remaining activity at 50 µM ([2]; read-out: Vi/V0, APMA activated MMP-9, [H1] 50 μM, replicate vi over each of 4 controls) was 41.4%. For the same compound, the remaining activity at 60 µM ([2]; read-out: Vi/V0, APMA activated MMP-9, [H1] 60 μM, replicate vi over each of 4 controls) was 36.8%, the remaining activity at 70 µM ([2]; read-out: Vi/V0, APMA activated MMP-9, [H1] 70 μM, replicate vi over each of 4 controls) was 33.5% and the remaining activity at 80 µM ([2]; read-out: Vi/V0, APMA activated MMP-9, [H1] 80 μM, replicate vi over each of 4 controls) was 32.6%. For the same compound, the remaining activity at 90 µM ([2]; read-out: Vi/V0, APMA activated MMP-9, [H1] 90 μM, replicate vi over each of 4 controls) was 27.8%, the remaining activity at 100 µM ([2]; read-out: Vi/V0, APMA activated MMP-9, [H1] 100 μM, replicate vi over each of 4 controls) was 23.6% and the remaining activity at 100 µM ([2]; read-out: vi/v0 (single replicate), rMMP-9 (APMA activated), 100 µM inhibitor, no preincubation) was 16.4%. It also gave a remaining activity at 100 µM ([2]; read-out: vi/v0 avg, rMMP-9 (APMA activated), 100 µM inhibitor, no preincubation) of 21.7%, a Ki [3] of 30 ± 4 µM and a remaining activity at 100 µM ([3]; 0.25 h, read-out: vi/v0 (single replicate), rMMP-9 (Mag-trypsin activated), 15 min pre incubation) of 38.1%. It also gave a remaining activity at 100 µM ([3]; 0.25 h, read-out: vi/v0 avg, rMMP-9 (Mag-trypsin activated), 15 min pre incubation) of 47.9%, a remaining activity at 100 µM ([3]; 0.5 h, read-out: vi/v0 (single replicate), rMMP-9 (Mag-trypsin activated), 30 min pre incubation) of 47.4% and a remaining activity at 100 µM ([3]; 0.5 h, read-out: vi/v0 avg, rMMP-9 (Mag-trypsin activated), 30 min pre incubation) of 47.5%. For the same compound, the “inhibitory effect on enzymatic activity” value ([3]; MMP-9(MT), 100 μM compound, in words) was “strong inhibition”, the Vi/V0 avg ([3]; [H1] 10 μM) was 0.823 and the Vi/V0 avg ([3]; [H1] 20 μM) was 0.766.

Source: publication PMC12316308, “Interactions of substrates and phosphinyl containing inhibitors with bacterial and human zinc proteases” (PLOS One, 2025)
